In one data set the test system is skin. Description: Applicant's studies of chlorophyllin combined with aminolevulinic acid.
The next data set in a line: Water-solubility. In kind it is physicochemical. The note with it: compared with chlorophyll.

With chlorophyllin, in the data set with skin, the “effectiveness of aminolevulinic acid” value is “promoting the effectiveness” and the “protective role against side effects of aminolevulinic acid (erythema)” value was “preventing in particular the appearance of erythema”. Moreover, the water-solubility result in the data set “Water-solubility” was “good water-solubility”.

The values above are taken from patent US20100255045A1, “COMPOSITION FOR PHOTODYNAMIC SKIN TREATMENT” (priority 2007, published 2010).
